Experimental data published in article PMC7504677, “Impact of N-Alkylamino Substituents on Serotonin Receptor (5-HTR) Affinity and Phosphodiesterase 10A (PDE10A) Inhibition of Isoindole-1,3-dione Derivatives” (Molecules, 2020).

Key:
[1] = molecular target: PDE10A (Homo sapiens, UniProt Q9Y233); test: luminescence PDE inhibition assay (PDElight HTS cAMP phosphodiesterase assay kit); type: biochemical; details: 1 h, percentage of inhibition respective to vehicle control (DMSO)
Description: Test and reference compounds were dissolved in dimethyl sulfoxide (DMSO) at a concentration of 1 mM and further diluted in assay buffer in order to obtain the final concentration of compounds: 10 µM and 3 µM, respectively. All reactions were carried out at 37 °C in white, half-area 96-well plates (Perkin Elmer, Waltham, MA, USA). The inhibition of PDE 10A enzyme was measured using the PDElight HTS cAMP phosphodiesterase assay kit (Lonza) according to the manufacturer’s recommendations. 2.5 U of PDE 10A enzyme was preincubated either with DMSO (vehicle control) or compound for 20 min before incubation with the substrate, cAMP (final concentration 1.25 µM), for 1 h. Then, PDELight AMP Detection Reagent was added. After 10 min incubation, the luminescence was measured in a multifunction plate reader (POLARstar Omega, BMG Labtech, Ortenberg, Germany).

[2] = molecular target: T1, 5-HT1A receptor (Homo sapiens, UniProt P08908); test: radioligand binding assay, [3H]8-OH-DPAT; details: read-out: 5-HT1A 1 µM ± SEM (% of control specific binding)
T1 sequence (P08908 1-422): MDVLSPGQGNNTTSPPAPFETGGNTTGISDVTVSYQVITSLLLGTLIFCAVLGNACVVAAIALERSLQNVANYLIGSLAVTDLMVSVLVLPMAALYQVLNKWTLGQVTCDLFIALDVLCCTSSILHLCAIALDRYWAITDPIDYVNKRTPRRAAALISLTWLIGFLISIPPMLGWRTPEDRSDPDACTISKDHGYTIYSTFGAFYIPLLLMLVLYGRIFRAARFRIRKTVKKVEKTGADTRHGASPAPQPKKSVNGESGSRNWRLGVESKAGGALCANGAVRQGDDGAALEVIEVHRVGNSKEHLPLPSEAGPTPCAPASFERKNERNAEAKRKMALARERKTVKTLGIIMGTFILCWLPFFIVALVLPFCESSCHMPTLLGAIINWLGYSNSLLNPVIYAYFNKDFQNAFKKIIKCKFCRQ
Description: (§1) Briefly: binding experiments were conducted in 96-well microplates in a total final volume of 250 μL of appropriate buffers. Reaction mix included 50 μL solution of test compound, 50 μL of radioligand ([^3H]8-OH-DPAT for 5-HT1A, and [^3H]-LSD for 5-HT7, respectively) and 150 μL of diluted membranes (see description and Table S2 in Supporting Materials). Specific assay conditions for each receptor are described elsewhere. The radioactivity was measured in a MicroBeta2 scintillation counter (PerkinElmer, USA). Each compound was tested in the assay as duplicate samples at 1 µM final concentrations. Results were expressed as percent inhibition of specific binding.

[3] = molecular target: 5-HT7 receptor (Homo sapiens, UniProt P34969); test: radioligand binding assay, [3H]-LSD; details: read-out: 5-HT7 1 µM ± SEM (% of control specific binding)
Description: as §1

Chain of PDE10A (Q9Y233 whole entry, species assumed): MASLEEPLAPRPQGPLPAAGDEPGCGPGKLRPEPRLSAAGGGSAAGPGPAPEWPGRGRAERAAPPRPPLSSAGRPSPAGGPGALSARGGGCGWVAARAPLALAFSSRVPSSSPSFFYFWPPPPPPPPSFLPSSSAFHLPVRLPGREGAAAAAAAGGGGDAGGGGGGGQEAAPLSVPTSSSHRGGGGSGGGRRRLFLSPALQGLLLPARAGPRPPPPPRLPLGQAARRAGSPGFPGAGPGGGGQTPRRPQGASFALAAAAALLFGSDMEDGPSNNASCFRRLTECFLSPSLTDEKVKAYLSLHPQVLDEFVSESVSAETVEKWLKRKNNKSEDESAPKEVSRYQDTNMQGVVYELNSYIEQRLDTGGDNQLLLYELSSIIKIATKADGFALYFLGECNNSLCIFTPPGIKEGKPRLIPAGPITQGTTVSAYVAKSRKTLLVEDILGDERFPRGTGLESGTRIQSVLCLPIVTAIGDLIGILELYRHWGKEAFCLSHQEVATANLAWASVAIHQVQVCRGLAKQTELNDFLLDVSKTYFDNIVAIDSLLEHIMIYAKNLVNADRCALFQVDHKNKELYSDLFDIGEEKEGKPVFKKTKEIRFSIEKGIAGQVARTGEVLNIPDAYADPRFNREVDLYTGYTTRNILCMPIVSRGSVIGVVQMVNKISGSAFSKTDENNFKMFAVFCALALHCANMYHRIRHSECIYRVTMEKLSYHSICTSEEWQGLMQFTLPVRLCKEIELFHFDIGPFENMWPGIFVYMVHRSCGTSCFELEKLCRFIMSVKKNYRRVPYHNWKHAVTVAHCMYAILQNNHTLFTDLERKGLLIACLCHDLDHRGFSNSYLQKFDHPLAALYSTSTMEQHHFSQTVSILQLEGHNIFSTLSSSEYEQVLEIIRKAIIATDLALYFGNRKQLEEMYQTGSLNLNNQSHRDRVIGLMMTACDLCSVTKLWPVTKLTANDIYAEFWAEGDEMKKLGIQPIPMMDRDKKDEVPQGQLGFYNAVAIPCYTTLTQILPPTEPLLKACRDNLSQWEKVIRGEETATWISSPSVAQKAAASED
Chain of 5-HT7 receptor (P34969 whole entry): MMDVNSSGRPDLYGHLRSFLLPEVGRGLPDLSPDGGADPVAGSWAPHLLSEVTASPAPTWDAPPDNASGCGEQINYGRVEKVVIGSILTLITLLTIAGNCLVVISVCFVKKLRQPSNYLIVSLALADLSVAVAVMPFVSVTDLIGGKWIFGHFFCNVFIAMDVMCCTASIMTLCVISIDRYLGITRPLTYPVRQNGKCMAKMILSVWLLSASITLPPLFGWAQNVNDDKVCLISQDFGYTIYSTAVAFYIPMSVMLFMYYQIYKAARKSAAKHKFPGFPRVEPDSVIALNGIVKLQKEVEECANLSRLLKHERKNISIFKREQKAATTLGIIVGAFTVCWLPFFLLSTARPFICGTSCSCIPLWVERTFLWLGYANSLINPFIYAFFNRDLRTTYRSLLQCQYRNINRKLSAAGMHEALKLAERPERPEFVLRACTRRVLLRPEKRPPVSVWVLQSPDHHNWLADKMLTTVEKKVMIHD

Row | Compound | inhibition at 3 µM [1] [%] | inhibition at 10 µM [1] [%] | inhibition at 1 µM [2] [%] | inhibition at 1 µM [3] [%] | melting point [°C]
1 | COc1cc2c(cc1OC)CN(CCN1C(=O)c3cccc(OC)c3C1=O)CC2 [Compound 3, 2-[2-(6,7-Dimethoxy-3,4-dihydroisoquinolin-2(1H)-yl)ethyl]-4-methoxy-1H-isoindole-1,3(2H)-dione] | 0 | 0 | 27 ± 3 | 0 | 108 to 109
2 | COc1cccc2c1C(=O)N(CCN1CCc3ccccc3C1)C2=O [Compound 4, 2-[2-(3,4-Dihydroisoquinolin-2(1H)-yl)ethyl]-4-methoxy-1H-isoindole-1,3(2H)-dione] | 0 | 0 | 12 ± 4 | 0 | 157 to 158
3 | COc1cccc2c1C(=O)N(CCN1CCC3CCCCC3C1)C2=O (stereo not shown) [Compound 5, 2-[2-(Octahydroisoquinolin-2(1H)-yl)ethyl]-4-methoxy-1H-isoindole-1,3(2H)-dione] | 0 | 0 | 25 ± 3 | 0 | 145 to 146
4 | COc1cc2c(cc1OC)CN(CCCN1C(=O)c3cccc(OC)c3C1=O)CC2 [Compound 6, 2-[3-(6,7-Dimethoxy-3,4-dihydroisoquinolin-2(1H)-yl)propyl]-4-methoxy-1H-isoindole-1,3(2H)-dione] | 0 | 0 | 32 ± 4 | 0 | 107 to 109
5 | COc1cccc2c1C(=O)N(CCCN1CCc3ccccc3C1)C2=O [Compound 7, 2-[3-(3,4-Dihydroisoquinolin-2(1H)-yl)propyl]-4-methoxy-1H-isoindole-1,3(2H)-dione] | 18 | 19 | 33 ± 2 | 51 ± 2 | 92 to 93
6 | COc1cccc2c1C(=O)N(CCCN1CCC3CCCCC3C1)C2=O (stereo not shown) [Compound 8, 2-[3-(Octahydroisoquinolin-2(1H)-yl)propyl]-4-methoxy-1H-isoindole-1,3(2H)-dione] | 7 | 7 | 28 ± 3 | 0 | 103 to 104
7 | COc1cccc2c1C(=O)N(Cc1ccccc1)C2=O [Compound 9, 2-Benzyl-4-methoxy-1H-isoindole-1,3(2H)-dione] | 0 | 0 | 6 ± 2 | 0 | 167 to 168

Next, values leading:

Row | inhibition at 3 µM [1] [%] | inhibition at 10 µM [1] [%] | inhibition at 1 µM [2] [%] | inhibition at 1 µM [3] [%] | melting point [°C] | Compound
8 | 0 | 0 | 10 ± 1 | 0 | 144 to 145 | COc1cccc2c1C(=O)N(Cc1ccccn1)C2=O [Compound 10, 4-Methoxy-2-(pyridin-2-ylmethyl)-1H-isoindole-1,3(2H)-dione]
9 | 7 | 15 | 39 ± 3 | 0 | 239 to 240 | COc1cccc2c1C(=O)N(Cc1nc3ccccc3[nH]1)C2=O [Compound 11, 2-(1H-Benzimidazol-2-ylmethyl)-4-methoxy-1H-isoindole-1,3(2H)-dione]
10 | 5 | 10 | 13 ± 2 | 0 | 123 to 124 | COc1cccc2c1C(=O)N(CCc1ccccc1)C2=O [Compound 12, 4-Methoxy-2-(2-phenylethyl)-1H-isoindole-1,3(2H)-dione]
11 | 0 | 0 | 59 ± 4 | 0 | 155 to 157 | COc1cccc2c1C(=O)N(CCc1ccccn1)C2=O [Compound 13, 4-Methoxy-2-[2-(pyridin-2-yl)ethyl]-1H-isoindole-1,3(2H)-dione]
